Results: US6777426B2, “Imidazole and imidazoline derivatives and uses thereof” (Synaptic Pharmaceutical Corporation, priority 1997, dated 2004)
Structures can show the parent of a compound that is named as a salt. Where two headings read alike, the source gives them in different places.

Tests used:
[1] = biological target: T1, human α2a adrenergic receptor (Homo sapiens, UniProt P08913); assay: Equilibrium competition binding, [3H]rauwolscine, cloned human α2a
T1 construct: expressed in transfected cells; host or cells: LM(tk−) cells (L-α2A, ATCC CRL-11180), vector pCEXV-3
T1 sequence (P08913 1-465): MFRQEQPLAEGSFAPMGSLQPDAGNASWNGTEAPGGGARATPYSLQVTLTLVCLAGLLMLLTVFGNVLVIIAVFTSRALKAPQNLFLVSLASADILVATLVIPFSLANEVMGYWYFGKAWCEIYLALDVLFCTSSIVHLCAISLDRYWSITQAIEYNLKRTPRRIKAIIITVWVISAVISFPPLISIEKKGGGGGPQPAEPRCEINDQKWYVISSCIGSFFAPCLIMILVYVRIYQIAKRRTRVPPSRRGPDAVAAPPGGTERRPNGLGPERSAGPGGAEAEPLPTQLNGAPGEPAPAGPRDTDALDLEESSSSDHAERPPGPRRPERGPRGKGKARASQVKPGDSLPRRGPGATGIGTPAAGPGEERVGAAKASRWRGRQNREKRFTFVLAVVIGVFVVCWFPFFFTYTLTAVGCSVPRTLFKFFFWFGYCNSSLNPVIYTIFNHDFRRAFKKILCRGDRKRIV
Protocol: (§1) Binding and functional assays were performed using stably transfected cells expressing human α adrenergic receptors. Equilibrium competition binding assays were performed with membrane preparations from cultured LM(tk−) cells stably transfected with the cloned human adrenoceptor subtypes except for a21, which was expressed In Y-1 cells, using [^3H]prazosin for α1 receptors and [^3H]rauwolscine for […].
(§2) These cell lines were prepared by transfecting cloned cDNA or cloned genomic DNA or constructs containing both genomic DNA and cDNA encoding the human a adrenergic receptors as described below.
The insert housing this coding region was a 2.5 kb Kpnl/HindIII human placenta genomic fragment which was end-blunted by either T4 polymerase or Klenow fragment of DNA polymerase. Stable cell lines were obtained by to-transfection with the plasmid pGCcos3neo (plasmid containing the α2a receptor gene) and the plasmid pGCcos3neo (plasmid containing the aminoglycoside transferase gene) into LM(tk−), CHO, and NIH3T3 cells, using calcium phosphate technique. The cells were grown in a controlled environment (37° C., 5% CO2) as monolayers in Dulbecco's modified Eagle's Medium (GIBCO, Grand Island, N.Y.) containing 25 mM glucose and supplemented with 10% bovine calf serum, 100 units/mL penicillin g, and […] streptomycin sulfate.
(§3) The stable cell lines described above were scraped from culture flasks into 5 mL of 5 mM Tris-HCl, […], pH 7.5, and lysed by sonication. The cell lysates were centrifuged at 1,000 rpm for 5 min. at 4° C., and the supernatant was centrifuged at 30,000×g for 20 min. at 4° C. The pellet was suspended in 50 mM Tris-HCl, 1 mM MgCl2, and 0.1% ascorbic acid at pH 7.5. Binding of the α2 antagonist [^3H]rauwolscine (0.5 nM) or the α1 antagonist [^3H]prazosin (0.5 nM) to membrane preparations of LM(tk−) cells was done in a final volume of 0.25 mL and incubated at 37° C. for 20 min. Nonspecific binding was determined in the presence of […]. The reaction was stopped by filtration through GF/B filters using a cell harvester.

[2] = biological target: T2, human α2b adrenergic receptor (Homo sapiens, UniProt P18089); assay: Equilibrium competition binding, [3H]rauwolscine, cloned human α2b
T2 construct: expressed in transfected cells; host or cells: stably transfected cells, vector pcEXV-3; deposited line L-NGC-α2B (ATCC CRL-10275)
T2 sequence (P18089 1-450): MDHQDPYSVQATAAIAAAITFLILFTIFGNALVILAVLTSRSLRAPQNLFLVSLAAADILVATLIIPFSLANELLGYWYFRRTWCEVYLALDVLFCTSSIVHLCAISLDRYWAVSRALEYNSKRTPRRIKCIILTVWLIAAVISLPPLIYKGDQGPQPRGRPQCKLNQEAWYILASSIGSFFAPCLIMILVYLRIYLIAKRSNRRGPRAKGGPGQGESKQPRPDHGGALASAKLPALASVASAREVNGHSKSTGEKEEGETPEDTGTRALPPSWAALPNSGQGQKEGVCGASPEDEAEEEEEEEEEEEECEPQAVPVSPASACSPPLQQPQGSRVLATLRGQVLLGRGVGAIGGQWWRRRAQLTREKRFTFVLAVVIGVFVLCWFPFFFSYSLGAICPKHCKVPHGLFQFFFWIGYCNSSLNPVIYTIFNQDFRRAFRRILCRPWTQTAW
Protocol: as §1, §2
Stable cell lines were selected as described above.
as §3

[3] = biological target: T3, human α2c adrenergic receptor (Homo sapiens, UniProt P18825); assay: Equilibrium competition binding, [3H]rauwolscine, cloned human α2c
T3 construct: The entire coding region of α2c (1383 bp), including 2 bp of 5′ UT and 400 bp of 3′ UT; expressed in transfected cells; host or cells: LM(tk−) cells (L-α2c, ATCC CRL-11181), vector pCEXV-3
T3 sequence (P18825 1-462): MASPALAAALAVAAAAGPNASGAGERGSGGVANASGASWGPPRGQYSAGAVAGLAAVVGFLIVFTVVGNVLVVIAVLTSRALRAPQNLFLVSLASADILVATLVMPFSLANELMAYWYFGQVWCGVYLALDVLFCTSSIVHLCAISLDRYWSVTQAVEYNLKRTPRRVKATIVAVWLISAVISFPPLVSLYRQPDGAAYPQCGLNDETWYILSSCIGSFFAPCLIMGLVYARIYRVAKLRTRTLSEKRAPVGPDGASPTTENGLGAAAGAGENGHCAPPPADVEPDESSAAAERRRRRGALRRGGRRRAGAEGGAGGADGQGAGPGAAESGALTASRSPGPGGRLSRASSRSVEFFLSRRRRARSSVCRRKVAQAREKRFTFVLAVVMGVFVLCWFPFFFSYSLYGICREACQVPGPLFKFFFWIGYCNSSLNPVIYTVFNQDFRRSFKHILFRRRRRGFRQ
Protocol: as §1, §2
The insert housing this coding region was a 1.8 kb Ncol/EcoR1 human spleen genomic fragment which was end-blunted by either T4 polymerase or Klenow fragment of DNA polymerase. Stable cell lines were selected as described above.
as §3

[4] = biological target: T1, human α2a adrenergic receptor; assay: α2 agonist activity: inhibition of forskolin-stimulated cAMP synthesis, α2a cells; type: cell-based
Protocol: as §1, §2
(§4) The agonist activity (expressed as pEC50) was measured as a function of the ability to inhibit the forskolin-stimulated synthesis of cyclic adenosine monophosphate (cAMP). The stably transfected cells were incubated in Ham's F10 with 5 mM theophylline, 10 mM HEPES, 17 mM pargyline, and/or appropriate concentrations of forskolin for 20 min. at 37° C. in 5% CO2. The tested compounds were then added to a final concentration of 0.001 nM to 1 mM and incubated for an additional 15 min. at 37° C. in 5% CO2. The medium was aspirated and the reaction was stopped by the addition of 100 mM HCl. […] The plates were stored at 4° C. for 15 min. and assayed to determine the linear concentration of cAMP. The appropriate dilution was interpolated from the standard curve of cold cAMP. The assessment of cAMP formation was determined by radioimmunoassay (cAMP radioimmunoassay kit; Advanced magnetics, Cambridge, Mass.). Radioactivity was quantified using a Packard COBRA Auto Gamma counter equipped with data reduction software.

[5] = biological target: T2, human α2b adrenergic receptor; assay: α2 agonist activity: inhibition of forskolin-stimulated cAMP synthesis, α2b cells; type: cell-based
Protocol: as §1, §2, §4

[6] = biological target: T3, human α2c adrenergic receptor; assay: α2 agonist activity: inhibition of forskolin-stimulated cAMP synthesis, α2c cells; type: cell-based
Protocol: as §1, §2, §4

[7] = cloned human α2a, membrane preparations, [3H]rauwolscine, read-out: α2a pKi (converted)
[8] = cloned human α2b, membrane preparations, [3H]rauwolscine, read-out: α2b pKi (converted)
[9] = cloned human α2c, membrane preparations, [3H]rauwolscine, read-out: α2c pKi (converted)
[10] = inhibition of forskolin-stimulated cAMP, cloned human α2b, read-out: α2b pEC50 (converted)
[11] = inhibition of forskolin-stimulated cAMP, cloned human α2c, read-out: α2c pEC50 (converted)
[12] = inhibition of forskolin-stimulated cAMP, cloned human α2a
[13] = inhibition of forskolin-stimulated cAMP, cloned human α2b
[14] = inhibition of forskolin-stimulated cAMP, cloned human α2c

## O=C1CCCc2ccc(NC3=NCCN3)c(Br)c21 (as salt: fumarate) [Example 5, 2-(8-Bromo-1,2,3,4-Tetrahydro-1-oxo-naphth-7-yl)amino-2-imidazoline]
other
  melting point: 204 to 207 °C (dec.)

## OC1CCCc2ccc(NC3=NCCN3)cc21 (centres unmarked) (as salt: fumarate)
other
  melting point: 180 to 182 °C (dec.)

## CC(c1c[nH]cn1)c1cc(-c2ccccc2)nc2ccccc12 (centres unmarked) [Example 36, 4-[1-(1H-Imidazol-4-yl)-ethyl]-2-phenyl-quinoline dihydrochloride]
[1]; [7]
  Ki: 2.69 nM
[2]; [8]
  Ki: 40.7 nM
[3]; [9]
  Ki: 16.2 nM
[4]; inhibition of forskolin-stimulated cAMP, cloned human α2a, read-out: α2a pEC50 (converted)
  EC50: 10000 nM
[5]; [10]
  EC50: 2820 nM
[6]; [11]
  EC50: 7.24 nM

## Cc1nc2c(c(C)c1NC1=NCCN1)CCC2 (as salt: fumarate) [Example 30, 2-(5,6-Cyclopenteno-2,4-dimethyl-pyrid-3-yl)amino-2-imidazoline]
other
  melting point: 220 to 221 °C

## CC1CCCc2ccc(NC3=NCCN3)cc21 (centres unmarked) (as salt: fumarate)
other
  melting point: 185 to 187 °C (dec.)

## c1nc2c(cc1NC1=NCCN1)CCCC2 (as salt: fumarate)
other
  melting point: 201 to 203 °C

## CC1(C)CCCc2cc(NC3=NCCN3)cnc21 (as salt: fumarate)
other
  melting point: 185 to 186 °C (dec.)

## CON=C1CCCc2ccc(NC3=NCCN3)cc21 (as salt: fumarate) [Example 8, 2-(1,2,3,4-Tetrahydro-1-methoxyimino-naphth-7-yl)amino-2-imidazoline]
other
  melting point: 201 to 202 °C (dec.)

## Brc1nc2c(c(Br)c1NC1=NCCN1)CCC2 [Example 29, 2-(2,4-Dibromo-5,6-cyclopentenopyrid-3-yl)amino-2-imidazoline]
[1]; [7]
  Ki: 14.8 nM
[2]; [8]
  Ki: 51.3 nM
[3]; [9]
  Ki: 251 nM
[4]
  EC50: 15.8 nM
[4]; [12]
  α2a IA (Intrinsic Activity): (1.00)
[5]; [13]
  α2b IA (Intrinsic Activity): (0.40)
[5]; [10]
  EC50: 91.2 nM
[6]; [14]
  α2c IA (Intrinsic Activity): (1.00)
[6]; [11]
  EC50: 13.8 nM

## C1=NC(Cc2ccnc3ccccc23)CN1.O=C(O)/C=C/C(=O)O (centres unmarked)
other
  melting point: 180 to 182 °C

## c1nc2c(cc1NC1=NCCN1)CCC2 [Example 21, 2-(2,3-Cyclopentenopyrid-5-yl)amino-2-imidazoline]
[1]
  Ki: 50.1 nM
[2]
  Ki: 166 nM
[3]
  Ki: 457 nM
[4]
  EC50: 389 nM
[4]; [12]
  α2a IA (Intrinsic Activity): (0.58)
[5]
  EC50: 1950 nM
[5]; [13]
  α2b IA (Intrinsic Activity): (0.55)
[6]
  EC50: 16.2 nM
[6]; [14]
  α2c IA (Intrinsic Activity): (1.00)

## c1nc2c(cc1NC1=NCCN1)COCC2 (as salt: fumarate)
other
  melting point: 201 to 202.5 °C

## O=C1CCCc2ccc(NC3=NCCN3)cc21 (as salt: fumarate) [Example 4, 2-(1,2,3,4-Tetrahydro-1-oxo-naphth-7-yl)amino-2-imidazoline]
other
  melting point: 198 to 201 °C (dec.)

## Brc1c(NC2=NCCN2)ccc2nccnc12 [UK-14, 304, reference compound]
[6]; [14]
  α2c IA (Intrinsic Activity): (1.00)

## O=[N+]([O-])c1cc2c(cc1NC1=NCCN1)CCC2 (as salt: fumarate)
other
  melting point: 213 to 214 °C (dec.)

## CC1CCCc2cc(NC3=NCCN3)cnc21 (centres unmarked) (as salt: fumarate)
other
  melting point: 155 to 160 °C (dec.)

## CC1CCc2ncc(NC3=NCCN3)cc2C1 (centres unmarked) (as salt: fumarate)
other
  melting point: 192 to 195 °C (dec.)

## Cc1cccc(C(C)c2cnc[nH]2)c1C (centres unmarked) [Medetomidine, reference compound]
[3]; [9]
  Ki: 5.37 nM
[4]; [12]
  α2a IA (Intrinsic Activity): (1.00)
[6]; [14]
  α2c IA (Intrinsic Activity): (1.00)
[6]; [11]
  EC50: 1.48 nM

## c1nc2c(cc1NC1=NCCN1)CCC2 (as salt: fumarate) [Example 21, 2-(2,3-Cyclopentenopyrid-5-yl)amino-2-imidazoline]
other
  melting point: 182 to 183.5 °C

## CC(=O)N1CCc2cc(NC3=NCCN3)ccc21 (as salt: fumarate) [Example 9, 2-(1-Acetyl-indolin-5-yl)amino-2-imidazoline]
other
  melting point: 200 to 203 °C (dec.)

## Brc1cc2c(c(Br)c1NC1=NCCN1)CCC2
other
  melting point: 163 to 164 °C

## c1nc2c(cc1NC1=NCCN1)CSCC2 (as salt: fumarate) [Example 25, 2-(5,6,7,8-tetrahydro-6-thia-quinolin-3-yl)amino-2-imidazoline]
other
  melting point: 199.5 to 200.5 °C

## Br.Brc1cc2c(cc1NC1=NCCN1)CCC2
other
  melting point: 220 to 221 °C
